# From patent US9169268B2, “Use of 7-alkoxy fangchinoline compounds in preventing, alleviating and/or treating depression” (Peking University, priority 2012, dated 2015)
# How the values were obtained:
# [1] = tested on: chronic unpredictable stress (CUS) model in rats; assay: Forced swimming test in chronic unpredictable stress (CUS) model in rats; type: in vivo; conditions: 7 days
# Procedure: (§1) The chronic unpredictable stress model is usually used as a depression model. The experimental method is as follows. Stimulation includes forced swimming (10° C., 6 min), tail clamping (1 cm from the tail tip, 1 min), water deprivation (24 h), fasting (24 h), isolated housing (24 h), tail suspension (1 h), immobility (2 h), high-speed horizontal oscillation (120 times/min, 1 h), foot shock for 45 minutes (mean 1 mA, time course 1 s, once/min). These stressors were randomly scheduled over a one-week period and repeated throughout the 23-day experiment. The non-stress control group was housed under normal conditions. Time: between 9:00 a.m. and 2:00 p.m. Since Day 15, the animals in each group were daily intragastrically administered with the subject medicament and double distilled water based on body weight (blank group and CUS model group) respectively, 60 minutes before the stress. […] Behavior and sleep electroencephalogram analyses were carried out on Day 22-23 of the stress. On Day 21, 60 minutes after the final administration, a sucrose solution intake test was carried out and sleep electroencephalogram was recorded simultaneously. On Day 22, EPM and forced swimming tests were carried out.
# [2] = tested on: chronic unpredictable stress (CUS) model in rats; assay: Sucrose solution preference in CUS model in rats; type: in vivo; conditions: 7 days
# Procedure: as §1
# [3] = tested on: chronic unpredictable stress (CUS) model in rats; assay: Elevated plus-maze (EPM) anxiety test in CUS model in rats; type: in vivo; conditions: for anti-anxiety-like effect: doses of 30 and 60 mg/kg
# Procedure: as §1
# [4] = tested on: chronic unpredictable stress (CUS) model in rats; assay: Autonomous movement in CUS model in rats; type: in vivo; conditions: 7 days
# Procedure: as §1
# [5] = molecular target: GSK-3β (Homo sapiens, UniProt P49841); assay: GSK-3β activity assay (Z′-LYTE); type: biochemical; conditions: n = 3; read-out: Mean EC50 in the inhibition of GSK-3β activity
# GSK-3β, sequence (P49841 whole entry): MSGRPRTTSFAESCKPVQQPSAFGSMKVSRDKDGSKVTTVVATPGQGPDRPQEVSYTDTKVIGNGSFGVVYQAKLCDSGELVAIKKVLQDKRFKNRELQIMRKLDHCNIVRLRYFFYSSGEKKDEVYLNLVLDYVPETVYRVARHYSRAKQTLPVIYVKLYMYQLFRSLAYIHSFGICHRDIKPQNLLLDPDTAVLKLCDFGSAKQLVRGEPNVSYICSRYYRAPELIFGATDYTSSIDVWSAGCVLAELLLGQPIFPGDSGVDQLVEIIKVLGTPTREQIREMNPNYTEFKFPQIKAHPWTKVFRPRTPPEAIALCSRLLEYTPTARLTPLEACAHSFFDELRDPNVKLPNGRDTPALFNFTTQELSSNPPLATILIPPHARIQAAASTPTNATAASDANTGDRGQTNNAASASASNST
# Procedure: The GSK-3β phosphorylation level was determined by using a Z′-LYTE assay (Life Technologies). The assay was performed in a 384-well plate. The wells of the testing plate were divided into blank control wells (without the enzyme), enzyme control wells (without the testing substance), and testing wells (with the enzyme and the testing substance at various concentrations). The inhibition rate of the testing substance is expressed as: inhibition %=(E−S)/(E−B)×100, wherein E is the average emission ratio of enzyme control wells; B is the average emission ratio of blank control wells; S is the emission ratio of the testing sample wells. The median effective concentration of each compound (EC50 μM) was calculated by using the resultant inhibition rate of each sample at various concentrations.
# [6] = tested on: chronic unpredictable stress (CUS) model in rats; assay: Depression-like behaviors overall in CUS model in rats (forced swimming, sucrose preference, autonomous mobility); type: in vivo; conditions: doses of 30 and 60 mg/kg
# Excerpt: The chronic unpredictable stress model is usually used as a depression model. The experimental method is as follows. […] These stressors were randomly scheduled over a one-week period and repeated throughout the 23-day experiment. The non-stress control group was housed under normal conditions. Time: between 9:00 a.m. and 2:00 p.m. Since Day 15, the animals in each group were daily intragastrically administered with the subject medicament and double distilled water based on body weight (blank group and CUS model group) respectively, 60 minutes before the stress. Imipramine (intraperitoneally, IP) was adopted as a positive control. Behavior and sleep electroencephalogram analyses were carried out on Day 22-23 of the stress. On Day 21, 60 minutes after the final administration, a sucrose solution intake test was carried out and sleep electroencephalogram was recorded simultaneously. On Day 22, EPM and forced swimming tests were carried out. Result 1: […]
# [7] = Serum AST and ALT in mice after 14 days of intragastric administration; type: in vivo; conditions: mouse, in vivo, 60 mg/kg/day
# Procedure: Blood was collected from epicanthal, stood at room temperature for about 2 hours, and centrifuged for 12 minutes at 3000 r/min after coagulation. The serum was removed and centrifuged again. Alanine transaminase (ALT) and aspartate transaminase (AST) levels were determined
Molecule,Sucrose solution preference ([2]; 30 mg/kg intragastric daily),Sucrose solution preference ([2]; 60 mg/kg intragastric daily) [%],Percentage of entries into open arms relative to total entries into arms ([3]; 30 mg/kg intragastric daily),Percentage of residence time in open arms ([3]; 30 mg/kg intragastric daily),Percentage of entries into open arms relative to total entries into arms ([3]; 60 mg/kg intragastric daily) [%],Percentage of residence time in open arms ([3]; 60 mg/kg intragastric daily) [%],anti-anxiety-like effect [3],Autonomous movement Distance ([4]; 30 mg/kg intragastric daily),Autonomous movement Speed ([4]; 30 mg/kg intragastric daily),Autonomous movement Distance ([4]; 60 mg/kg intragastric daily) [mm],Autonomous movement Speed ([4]; 60 mg/kg intragastric daily) [mm/second],EC50 [5] [nM],amelioration effect on depression-like behaviors [6],Sucrose solution preference ([2]; 7.5 mg/kg intragastric daily) [%],Sucrose solution preference ([2]; 15 mg/kg intragastric daily),Percentage of entries into open arms relative to total entries into arms ([3]; 7.5 mg/kg intragastric daily) [%],Percentage of residence time in open arms ([3]; 7.5 mg/kg intragastric daily),Percentage of entries into open arms relative to total entries into arms ([3]; 15 mg/kg intragastric daily) [%],Percentage of residence time in open arms ([3]; 15 mg/kg intragastric daily),ALT [7] [U/L],also measured
12-(4-ethoxy)-butoxyberbamine [reference compound],54.19 ± 4.45%,53.27 ± 3.55,36.6 ± 1.7%,40.1 ± 4.5%,37.2 ± 1.3,39.2 ± 3.5,no anti-anxiety-like effect,1367.52 ± 683.88 mm,4.56 ± 1.74 mm/second,935.73 ± 586.51,3.12 ± 1.31,> 10000,no amelioration effect,,,,,,,,Forced swimming Immobility time ([1]; 30 mg/kg intragastric daily): 179.5 ± 6.3 s; Forced swimming Immobility time ([1]; 60 mg/kg intragastric daily): 175.3 ± 8.4 s
12-acetoxyberbamine [reference compound],54.29 ± 3.74%,53.34 ± 3.04,38.2 ± 1.8%,41.9 ± 3.7%,36.8 ± 1.6,43.3 ± 3.4,no anti-anxiety-like effect,984.41 ± 542.67 mm,3.28 ± 1.35 mm/second,1135.49 ± 575.54,3.78 ± 1.46,> 10000,no amelioration effect,,,,,,,,Forced swimming Immobility time ([1]; 30 mg/kg intragastric daily): 179.2 ± 6.6 s; Forced swimming Immobility time ([1]; 60 mg/kg intragastric daily): 169.9 ± 7.4 s
"COc1ccc2cc1Oc1ccc(cc1)CC1c3cc(c(OC)cc3CCN1C)Oc1c(OC)c(OC)c(OC)c3c1C(C2)N(C)CC3 (stereo not shown) [5,7-dimethoxy-fangchinoline, reference compound]",53.7 ± 4.8%,55.3 ± 4.2,38.9 ± 1.8%,43.2 ± 4.1%,37.2 ± 1.4,42.8 ± 4.8,no anti-anxiety-like effect,1189.64 ± 315.84 mm,3.97 ± 1.48 mm/second,936.47 ± 366.32,3.12 ± 1.42,> 10000,no amelioration effect,,,,,,,,
"COc1cc(Br)c2cc1Oc1ccc(cc1)CC1c3cc(c(OC)cc3CCN1C)Oc1c(OC)c(OC)c(Br)c3c1C(C2)N(C)CC3 (stereo not shown) [Compound 2, 5,14-dibromo-7-methoxy fangchinoline]","88.5 ± 3.1^##,$$ %",,"56.2 ± 5.3^##,$$ %","64.5 ± 3.6^##,$$ %",,,,"12062.32 ± 903.42^##,$$ mm","40.21 ± 5.36^##,$$ mm/second",,,2010,,72.5 ± 3.0,"89.0 ± 4.6^##,$$ %",45.1 ± 3.8,"56.5 ± 3.0^##,$$ %",49.7 ± 4.0,"63.6 ± 4.1^##,$$ %",87.2 ± 24.7,"AST [7]: 108.4 ± 17.4 U/L; AST/ALT [7]: 1.24 ± 0.26; Autonomous movement Distance ([4]; 7.5 mg/kg intragastric daily): 9031.41 ± 639.33^##,$$ mm; Autonomous movement Speed ([4]; 7.5 mg/kg intragastric daily): 30.10 ± 3.88^##,$$ mm/second; Autonomous movement Distance ([4]; 15 mg/kg intragastric daily): 10116.74 ± 746.48^##,$$ mm; Autonomous movement Speed ([4]; 15 mg/kg intragastric daily): 33.72 ± 4.02^##,$$ mm/second; melting point: 187 to 189 °C"
"CCCOc1c(OC)cc2c3c1Oc1cc4c(cc1OC)CCN(C)C4Cc1ccc(cc1)Oc1cc(ccc1OC)CC3N(C)CC2 (stereo not shown) [Compound 6, 7-propoxy fangchinoline]","90.4 ± 4.3^##,$$ %",,"57.3 ± 4.6^##,$$ %","66.0 ± 4.2^##,$$ %",,,,"12566.27 ± 764.42^##,$$ mm","41.89 ± 4.36^##,$$ mm/second",,,1680,,79.45 ± 3.3,"85.5 ± 3.6^##,$$ %",47.0 ± 2.6,"59.4 ± 3.3^##,$$ %",50.5 ± 3.2,"64.1 ± 3.6^##,$$ %",92.3 ± 21.2,"AST [7]: 99.4 ± 21.1 U/L; AST/ALT [7]: 1.08 ± 0.27; Autonomous movement Distance ([4]; 7.5 mg/kg intragastric daily): 8940.78 ± 714.35^##,$$ mm; Autonomous movement Speed ([4]; 7.5 mg/kg intragastric daily): 29.80 ± 2.64^##,$$ mm/second; Autonomous movement Distance ([4]; 15 mg/kg intragastric daily): 11574.92 ± 732.36^##,$$ mm; Autonomous movement Speed ([4]; 15 mg/kg intragastric daily): 38.58 ± 3.02^##,$$ mm/second; melting point: 174.8 to 176.3 °C"
"CCCCOc1c(OC)cc2c3c1Oc1cc4c(cc1OC)CCN(C)C4Cc1ccc(cc1)Oc1cc(ccc1OC)CC3N(C)CC2 (stereo not shown) [Compound 7, 7-butoxy fangchinoline]","86.3 ± 3.4^##,$$ %",,"54.3 ± 5.6^##,$ %","61.5 ± 3.0^##,$$ %",,,,"11768.25 ± 903.41^##,$$ mm","39.23 ± 5.36^##,$$ mm/second",,,2330,,70.7 ± 4.1,87.1 ± 3.5 %,43.4 ± 2.6,"54.7 ± 4.1^##,$$ %",47.9 ± 4.0,"62.1 ± 3.4^##,$$ %",82.4 ± 17.9,"AST [7]: 93.6 ± 17.8 U/L; AST/ALT [7]: 1.14 ± 0.20; Autonomous movement Distance ([4]; 7.5 mg/kg intragastric daily): 8823.36 ± 673.14^##,$$ mm; Autonomous movement Speed ([4]; 7.5 mg/kg intragastric daily): 29.41 ± 2.64^##,$$ mm/second; Autonomous movement Distance ([4]; 15 mg/kg intragastric daily): 9586.43 ± 756.75^##,$$ mm; Autonomous movement Speed ([4]; 15 mg/kg intragastric daily): 31.95 ± 4.02^##,$$ mm/second; melting point: 155 to 156 °C"
